The assay relates to human mammary carcinoma of the MCF-7 line. Kind of assay: Inhibition of the growth of a human mammary carcinoma in the mouse model. The format is in vivo, Balb/c nu/nu-mice. The protocol: 2×6 female Balb/c nu/nu-mice (Bomholtgard, oestrogen-stimulated with 5 mg of oestradiol in a perforated plastics tube "Silastic®" (Dow Chemical, Michigan, USA)) are implanted with tumours by subcutaneous transplantation of fragments of human mammary carcinoma (about 25 mg) of the MCF-7 line (American Type Culture Collection, Maryland, USA; see H. D. Soule et al., J. Nat. Cancer Inst. 51, 1409-1416 (1973)). After the tumours have grown to a volume of about 30 to 100 mm^3 (after 13 days), 6 mice (test group) are each given twice dally over a period of 25 days a dose of 50 mg/kg of Boc-Phe[C]Phe-(L)-Val-(L)-Phe-morpholin-4-ylamide (dissolved in a concentration of 2 mg/ml in a 5% solution of dimethyl sulfoxide and 20% hydroxypropyl-β-cyclodextrin in water, prepared by dissolution of the test compound in dimethyl sulfoxide and dilution with aqueous hydroxypropyl-β-cyclodextrin solution). […] After 25 days (50 administrations) the following tumour volumes (mean value) are determined:
The tumour growth is determined by measuring the diameter along the longitudinal axis of the tumour (L) and perpendicular thereto (D) (in a living animal by means of a calliper gauge). The tumour volumes are calculated in accordance with the formula π×L×D^2 /6 (Evans, B. D., et al., Brit. J. Cancer 45, 466-468 (1982)).

For the substance “Boc-Phe[C]Phe-(L)-Val-(L)-Phe-morpholin-4-ylamide”, the “tumour growth in comparison with the control group” value (MCF-7 tumours in female Balb/c nu/nu-mice, 50 mg/kg orally twice daily for 25 days) is listed as “marked reduction in tumour growth”. In addition, the “tumour volume (mean value)” value (subcutaneous MCF-7 tumour fragments in oestrogen-stimulated female Balb/c nu/nu-mice, 50 mg/kg orally twice daily, after 25 days (50 administrations), placebo control 0.96 cm^3) stood at 0.30 cm^3.

For the origin of these results see patent publication US5663168A, “Use of compositions for combating tumour diseases” (CIBA-Geigy Corporation, priority 1993, dated 1997).
